This note sets out measurements from US10351561B2, “Pyrazolo[3,4-b]pyridines and imidazo[1,5-b]pyridazines as PDE1 inhibitors” (H. Lundbeck A/S, priority 2016, dated 2019).

Assay type in all cases: biochemical
One experiment addresses PDE1A (Homo sapiens, UniProt P54750). Briefly: PDE1 inhibition assay (PDE1A), SPA with tritium labelled cAMP. The note with it: 15 nM tritium labelled cAMP, 1 hr at room temperature, SPA beads.
Another experiment concerns the target PDE1C (Homo sapiens, UniProt Q14123). Briefly: PDE1 inhibition assay (PDE1C), SPA with tritium labelled cAMP. To be noted: 15 nM tritium labelled cAMP, 1 hr at room temperature, SPA beads.
The next experiment addresses PDE1B (Homo sapiens, UniProt Q01064). Briefly: PDE1 inhibition assay (PDE1B), SPA with tritium labelled cAMP. To be noted: 15 nM tritium labelled cAMP, 1 hr at room temperature, SPA beads; read-out: PDE1B, IC50. The protocol: Reactions were initiated by addition of the cyclic nucleotide substrate, and reactions were allowed to proceed for 1 hr at room temperature before being terminated through mixing with 20 μL (0.2 mg) yttrium silicate SPA beads (PerkinElmer).

PDE1B, sequence (Q01064 whole entry): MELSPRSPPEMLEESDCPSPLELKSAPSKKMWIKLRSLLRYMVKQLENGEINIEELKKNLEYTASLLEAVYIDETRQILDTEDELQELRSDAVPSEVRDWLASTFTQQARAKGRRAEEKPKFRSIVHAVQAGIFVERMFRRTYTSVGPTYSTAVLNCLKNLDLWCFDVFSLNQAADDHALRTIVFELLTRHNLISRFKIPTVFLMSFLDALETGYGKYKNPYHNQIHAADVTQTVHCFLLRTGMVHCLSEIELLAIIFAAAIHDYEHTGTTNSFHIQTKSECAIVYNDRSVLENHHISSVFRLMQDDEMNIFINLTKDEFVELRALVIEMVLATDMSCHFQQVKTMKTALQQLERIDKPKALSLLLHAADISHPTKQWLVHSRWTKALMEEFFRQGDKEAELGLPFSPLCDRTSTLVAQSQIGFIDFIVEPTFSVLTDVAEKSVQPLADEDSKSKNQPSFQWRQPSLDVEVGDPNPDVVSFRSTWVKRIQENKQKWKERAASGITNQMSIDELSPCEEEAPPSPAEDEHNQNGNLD
PDE1C, sequence (Q14123 whole entry): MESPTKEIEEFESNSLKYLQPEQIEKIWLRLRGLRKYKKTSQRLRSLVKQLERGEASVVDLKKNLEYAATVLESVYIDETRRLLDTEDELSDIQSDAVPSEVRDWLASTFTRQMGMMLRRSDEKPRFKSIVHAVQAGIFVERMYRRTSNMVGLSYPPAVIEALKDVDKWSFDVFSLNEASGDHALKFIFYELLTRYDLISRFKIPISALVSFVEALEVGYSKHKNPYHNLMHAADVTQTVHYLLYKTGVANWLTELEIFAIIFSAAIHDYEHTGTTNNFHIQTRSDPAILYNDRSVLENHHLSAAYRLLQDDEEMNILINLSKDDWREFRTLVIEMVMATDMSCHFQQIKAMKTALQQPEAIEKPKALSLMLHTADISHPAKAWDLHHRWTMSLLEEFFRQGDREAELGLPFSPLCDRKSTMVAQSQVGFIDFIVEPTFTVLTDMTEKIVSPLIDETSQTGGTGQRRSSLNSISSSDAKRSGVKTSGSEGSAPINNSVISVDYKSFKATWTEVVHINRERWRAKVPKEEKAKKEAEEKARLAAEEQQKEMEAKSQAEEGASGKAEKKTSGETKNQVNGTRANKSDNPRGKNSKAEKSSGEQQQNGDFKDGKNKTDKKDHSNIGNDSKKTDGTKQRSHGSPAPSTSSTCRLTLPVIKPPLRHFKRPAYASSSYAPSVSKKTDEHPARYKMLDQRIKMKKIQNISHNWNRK
PDE1A, sequence (P54750 whole entry): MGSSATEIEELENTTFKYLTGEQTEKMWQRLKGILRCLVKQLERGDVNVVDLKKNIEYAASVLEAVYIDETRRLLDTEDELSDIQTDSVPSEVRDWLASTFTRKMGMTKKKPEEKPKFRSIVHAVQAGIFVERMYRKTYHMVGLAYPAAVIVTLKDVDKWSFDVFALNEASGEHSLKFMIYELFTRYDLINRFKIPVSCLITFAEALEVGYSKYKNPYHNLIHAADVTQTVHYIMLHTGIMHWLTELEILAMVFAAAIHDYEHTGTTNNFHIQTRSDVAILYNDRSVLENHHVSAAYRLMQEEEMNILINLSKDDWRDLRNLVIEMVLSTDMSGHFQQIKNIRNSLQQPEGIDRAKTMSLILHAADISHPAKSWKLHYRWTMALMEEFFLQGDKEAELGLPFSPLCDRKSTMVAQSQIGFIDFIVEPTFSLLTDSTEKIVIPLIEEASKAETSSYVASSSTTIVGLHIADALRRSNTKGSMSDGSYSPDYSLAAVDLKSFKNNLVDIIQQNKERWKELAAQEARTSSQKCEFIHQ

As to `CCOc1ncccc1-c1cc(NCc2cccnc2F)c2c(C(C)C)nc(C)n2n1` [Example 73, 2-(2-ethoxy-3-pyridyl)-N-[(2-fluoro-3-pyridyl)methyl]-5-isopropyl-7-methyl-imidazo[1,5-b]pyridazin-4-amine], the 50% inhibitory concentration (IC50) (in general, the midpoint of a concentration-inhibition curve) against PDE1A worked out at 33 nM; at PDE1C, 29 nM; at PDE1B, 3.6 nM.

For the compound `CCOc1ncccc1-c1cc(NCc2ccccn2)c2c(C(C)C)nc(C)n2n1` [Example 74, 2-(2-ethoxy-3-pyridyl)-5-isopropyl-7-methyl-N-(2-pyridylmethyl)imidazo[1,5-b]pyridazin-4-amine], the IC50 against PDE1A amounted to 180 nM; against PDE1C, 190 nM; at PDE1B, 27 nM.

For the compound `CCOc1ncccc1-c1cc(NCc2ncccn2)c2c(C(C)C)nc(C)n2n1` [Example 75, 2-(2-ethoxy-3-pyridyl)-5-isopropyl-7-methyl-N-(pyrimidin-2-ylmethyl)imidazo[1,5-b]pyridazin-4-amine], the IC50 on PDE1A was found to be 11 nM; against PDE1C it was 24 nM; at PDE1B, 0.13 nM.

`CCOc1ncccc1-c1cc(NCc2ncc(F)cn2)c2c(C(C)C)nc(C)n2n1` [Example 76, 2-(2-ethoxy-3-pyridyl)-N-[(5-fluoropyrimidin-2-yl)methyl]-5-isopropyl-7-methyl-imidazo[1,5-b]pyridazin-4-amine]: the concentration for half-maximal inhibition (IC50) on PDE1A turned out to be 89 nM; at PDE1C it was 110 nM; at PDE1B, 17 nM.

For `CCOc1ncccc1-c1cc(NCc2cccnc2OC)c2c(C(C)C)nc(C)n2n1` [Example 77, 2-(2-ethoxy-3-pyridyl)-5-isopropyl-N-[(2-methoxy-3-pyridyl)methyl]-7-methyl-imidazo[1,5-b]pyridazin-4-amine], the concentration for half-maximal inhibition (IC50) against PDE1A is 48 nM; against PDE1C it was 48 nM; at PDE1B it was 9 nM.

Consider `CCOc1ncccc1-c1cc(NCc2cccc3cncn23)c2c(C(C)C)nc(C)n2n1` [Example 78, 2-(2-ethoxy-3-pyridyl)-N-(imidazo[1,5-a]pyridin-5-ylmethyl)-5-isopropyl-7-methyl-imidazo[1,5-b]pyridazin-4-amine], for which the IC50 against PDE1A came out at 61 nM; on PDE1C, 39 nM; on PDE1B, 5.5 nM.

Take `CCOc1ncccc1-c1cc(NCc2cccc3nccn23)c2c(C(C)C)nc(C)n2n1` [Example 79, 2-(2-ethoxy-3-pyridyl)-N-(imidazo[1,2-a]pyridin-5-ylmethyl)-5-isopropyl-7-methyl-imidazo[1,5-b]pyridazin-4-amine]: the half-inhibitory concentration (IC50) worked out at 35 nM against PDE1A, 19 nM against PDE1C and 28 nM on PDE1B.

For `CCOc1ncccc1-c1cc(NCc2cccnc2C(F)(F)F)c2c(C(C)C)nc(C)n2n1` [Example 80, 2-(2-ethoxy-3-pyridyl)-5-isopropyl-7-methyl-N-[[2-(trifluoromethyl)-3-pyridyl]methyl]imidazo[1,5-b]pyridazin-4-amine], the values for the IC50 against PDE1A, against PDE1C and at PDE1B were 74 nM, 72 nM and 15 nM, respectively.

On to `Cc1nc(C(C)C)c2c(NCc3ncn(C)n3)cc(-c3cccc4ncoc34)nn12` [Example 81, 2-(1,3-benzoxazol-7-yl)-5-isopropyl-7-methyl-N-[(1-methyl-1,2,4-triazol-3-yl)methyl]imidazo[1,5-b]pyridazin-4-amine], for which the results for the IC50 against PDE1A, at PDE1C and at PDE1B were 3.8 nM, 2.5 nM and 0.29 nM, respectively.
